In ChEMBL document CHEMBL1146644, “High-throughput identification of fucosyltransferase inhibitors using carbohydrate microarrays” (Bioorg Med Chem Lett, 2004):

Legend:
[1] = target: T1, 4-galactosyl-N-acetylglucosaminide 3-alpha-L-fucosyltransferase FUT6 (Homo sapiens, UniProt P51993); assay: Compound was tested for binding affinity against Fucosyltransferase 6
T1 sequence (P51993 whole entry): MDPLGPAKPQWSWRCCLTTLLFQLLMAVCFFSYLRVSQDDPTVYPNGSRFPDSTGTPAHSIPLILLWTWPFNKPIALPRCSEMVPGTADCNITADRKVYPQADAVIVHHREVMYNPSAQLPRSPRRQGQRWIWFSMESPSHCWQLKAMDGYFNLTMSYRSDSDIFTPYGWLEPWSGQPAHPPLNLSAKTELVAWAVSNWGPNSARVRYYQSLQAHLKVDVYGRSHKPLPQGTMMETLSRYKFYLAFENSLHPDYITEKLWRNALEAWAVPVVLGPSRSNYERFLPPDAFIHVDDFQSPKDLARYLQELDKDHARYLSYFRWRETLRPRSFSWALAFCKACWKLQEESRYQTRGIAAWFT

[2] = target: T1, 4-galactosyl-N-acetylglucosaminide 3-alpha-L-fucosyltransferase FUT6; assay: Inhibitory concentration required against Fucosyltransferase 6

Structure (SMILES)	Ki [1] [nM]	IC50 [2] [nM]
Nc1nc2c(ncn2C2O[C@H](COP(=O)(O)OP(=O)(O)OCc3cn(CCCC(=O)NC(Cc4ccccc4)c4ccccc4)nn3)[C@@H](O)[C@H]2O)c(=O)[nH]1 (stereo not given in full)	1070	3960
Nc1nc(O)c2ncn(C3O[C@H](COP(=O)(O)OP(=O)(O)OCc4cn(CCCCC(=O)NC5=CC6C(=O)c7ccccc7C(=O)C6C=C5)nn4)[C@@H](O)[C@H]3O)c2n1 (stereo not given in full)	511	1890
Nc1nc(O)c2ncn(C3O[C@H](COP(=O)(O)OP(=O)(O)OCc4cn(CC(=O)NC(Cc5ccccc5)c5ccccc5)nn4)[C@@H](O)[C@H]3O)c2n1 (stereo not given in full)	437	1620

The remaining compounds from weak to strong by Ki [1], led by results:

Ki [1] [nM]	IC50 [2] [nM]	Structure (SMILES)
901	3340	Nc1nc2c(ncn2C2O[C@H](COP(=O)(O)OP(=O)(O)OCc3cn(CCC(=O)NCc4cccc5ccccc45)nn3)[C@@H](O)[C@H]2O)c(=O)[nH]1 (stereo not given in full)
376	1390	Nc1nc(O)c2ncn(C3O[C@H](COP(=O)(O)OP(=O)(O)OCc4cn(CCCCC(=O)NC(Cc5ccccc5)c5ccccc5)nn4)[C@@H](O)[C@H]3O)c2n1 (stereo not given in full)
